From US20240270821A1, “GIP/GLP1/GCG TRI-RECEPTOR AGONISTS AND USES THEREOF” (priority 2023, published 2024)
pEC50: −log10 of the molar value. Where two headings read alike, the source gives them in different places. Starred links: 1 amine or outer side, 2 acyl side, 3 side chain; linkers in the order of their positions; H or OH if unused. Non-standard residues stand in square brackets, D forms with d. Groups on a side chain read outwards from the residue. *: point of attachment. C18 diacid = O=C(O)CCCCCCCCCCCCCCCCC(=O)*; αMePhe(2-F) = C[C@](N)(Cc1ccccc1F)C(=O)O; γGlu = O=C(O)[C@H](CCC(=O)[*:2])N[*:1]; αMe4Pal = C[C@](N)(Cc1ccncc1)C(=O)O; αMeY = C[C@](N)(Cc1ccc(O)cc1)C(=O)O; 4Pal = N[C@@H](Cc1ccncc1)C(=O)O; αMeL = CC(C)C[C@](C)(N)C(=O)O; αMeS = C[C@](N)(CO)C(=O)O; Orn = NCCC[C@H](N)C(=O)O; AEEA = NCCOCCOCC(=O)O; Aib = CC(C)(N)C(=O)O

Columns and labels:
Type in all cases: cell-based
hGLP-1R [1] = target: T1, hGLP-1R (Homo sapiens, UniProt P43220); experiment: Functional cAMP activation in the presence of 0.1% casein (no HSA); conditions: read-out: Relative cAMP EC50, hGLP-1R;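 note: intracellular cAMP rise after 30 min at 37 °C read by HTRF, normalized between buffer only (0%) and maximal control ligand (100%), four-parameter variable-slope fit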
T1 sequence (P43220 24-463): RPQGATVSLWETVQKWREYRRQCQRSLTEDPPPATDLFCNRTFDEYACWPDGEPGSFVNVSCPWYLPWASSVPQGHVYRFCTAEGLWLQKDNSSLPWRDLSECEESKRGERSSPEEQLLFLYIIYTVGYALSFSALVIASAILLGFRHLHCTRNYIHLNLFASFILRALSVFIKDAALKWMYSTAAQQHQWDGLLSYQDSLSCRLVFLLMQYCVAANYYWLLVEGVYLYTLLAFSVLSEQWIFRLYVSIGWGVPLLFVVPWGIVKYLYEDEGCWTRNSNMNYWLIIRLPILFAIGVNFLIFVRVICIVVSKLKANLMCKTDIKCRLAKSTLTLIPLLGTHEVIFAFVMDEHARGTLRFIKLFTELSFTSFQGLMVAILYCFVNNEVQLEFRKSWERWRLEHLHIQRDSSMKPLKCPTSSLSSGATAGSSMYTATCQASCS

hGIPR [2] = target: T2, hGIPR (Homo sapiens, UniProt P48546); experiment: Functional cAMP activity in the presence of 1% HSA; conditions: read-out: cAMP Rel EC50, hGIPR
T2 sequence (P48546 22-466): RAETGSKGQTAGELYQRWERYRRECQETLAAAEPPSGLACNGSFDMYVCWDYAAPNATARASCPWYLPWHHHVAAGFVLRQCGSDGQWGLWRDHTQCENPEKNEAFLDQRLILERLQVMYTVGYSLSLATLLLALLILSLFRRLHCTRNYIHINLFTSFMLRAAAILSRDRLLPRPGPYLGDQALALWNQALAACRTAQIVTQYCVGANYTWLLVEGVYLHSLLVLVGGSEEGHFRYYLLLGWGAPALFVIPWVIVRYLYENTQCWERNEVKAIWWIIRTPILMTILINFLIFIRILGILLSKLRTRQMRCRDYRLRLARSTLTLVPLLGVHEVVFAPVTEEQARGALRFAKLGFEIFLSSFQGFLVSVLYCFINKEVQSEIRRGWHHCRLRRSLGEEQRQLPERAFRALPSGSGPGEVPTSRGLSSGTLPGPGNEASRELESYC

hGcgR = hGcgR (Homo sapiens, UniProt P47871); experiment: Functional cAMP activation in the presence of 0.1% casein (no HSA); conditions: read-out: Relative cAMP EC50, hGcgR;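 note: intracellular cAMP rise after 30 min at 37 °C, read by HTRF against a cAMP standard curve, scaled from buffer only (0%) to maximal control ligand response (100%)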
Sequence of hGcgR (P47871 26-477): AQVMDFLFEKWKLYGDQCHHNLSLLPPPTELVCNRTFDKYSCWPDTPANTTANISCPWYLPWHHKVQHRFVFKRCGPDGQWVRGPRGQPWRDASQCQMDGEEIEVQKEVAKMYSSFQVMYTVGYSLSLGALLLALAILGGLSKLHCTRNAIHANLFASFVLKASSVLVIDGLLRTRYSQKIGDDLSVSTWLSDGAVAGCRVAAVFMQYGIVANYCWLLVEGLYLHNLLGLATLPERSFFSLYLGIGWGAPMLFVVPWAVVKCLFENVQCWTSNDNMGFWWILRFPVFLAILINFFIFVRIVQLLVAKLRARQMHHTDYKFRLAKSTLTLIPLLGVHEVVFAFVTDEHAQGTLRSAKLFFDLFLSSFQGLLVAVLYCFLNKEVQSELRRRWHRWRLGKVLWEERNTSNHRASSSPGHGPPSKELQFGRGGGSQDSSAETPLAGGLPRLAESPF

hGLP-1R [3] = target: T1, hGLP-1R; experiment: Functional cAMP activity in the presence of 1% HSA; conditions: read-out: cAMP Rel EC50, hGLP-1R
hGIPR [4] = target: T2, hGIPR; experiment: Functional cAMP activation in the presence of 0.1% casein (no HSA); conditions: read-out: Relative cAMP EC50, hGIPR;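 note: intracellular cAMP rise after 30 min at 37 °C read by HTRF against a standard curve, scaled between buffer alone (0%) and top control ligand concentration (100%), four-parameter fit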
human GcgR = human GcgR (Homo sapiens, UniProt P47871); experiment: Functional cAMP activity in the presence of 1% HSA; conditions: read-out: cAMP Rel EC50, hGcgR
Sequence of human GcgR (P47871 26-477): as above

[5] = in the presence of 0.1% casein (no HSA), geometric mean of relative EC50
[6] = HEK-293 clonal cell line, 1% HSA, geometric mean of relative EC50
[7] = in the presence of 0.1% casein (no HSA), geometric mean
[8] = 0.1% casein, no HSA, geometric mean

| Compound | pEC50 (hGLP-1R [1]) | pEC50 (hGIPR [2]) | pEC50 (hGcgR) | pEC50 (hGLP-1R [3]) | pEC50 (hGIPR [4]) | pEC50 (human GcgR) | pEC50 (hGLP-1R [1]; [7]) | pEC50 (hGcgR; [7]) | pEC50 (hGIPR [4]; [7]) | other results |
| --- | --- | --- | --- | --- | --- | --- | --- | --- | --- | --- |
| CC[C@H](C)[C@H](NC(=O)[C@H](CC(C)C)NC(=O)[C@](C)(Cc1ccc(O)cc1)NC(=O)[C@@H](CCC(=O)O)NC(=O)[C@@H](NC(=O)[C@H](Cc1ccccc1)NC(=O)[C@H](CCC(=O)O)NC(=O)C(C)(C)NC(=O)[C@H](C)NC(=O)[C@H](C)NC(=O)[C@H](CCCCNC(=O)COCCOCCNC(=O)CC[C@H](NC(=O)CCCCCCCCCCCCCCCCC(=O)O)C(=O)O)NC(=O)[C@H](CCCN)NC(=O)[C@H](CC(=O)O)NC(=O)[C@H](CC(C)C)NC(=O)[C@](C)(CC(C)C)NC(=O)[C@@H](NC(=O)[C@](C)(CO)NC(=O)[C@H](Cc1ccncc1)NC(=O)[C@H](CC(=O)O)NC(=O)[C@H](CO)NC(=O)[C@@H](NC(=O)[C@](C)(Cc1ccccc1F)NC(=O)[C@@H](NC(=O)CNC(=O)[C@H](CCC(N)=O)NC(=O)C(C)(C)NC(=O)[C@@H](N)Cc1ccc(O)cc1)[C@@H](C)O)[C@@H](C)O)[C@@H](C)CC)[C@@H](C)CC)C(=O)N[C@@H](CCC(=O)O)C(=O)NCC(=O)NCC(=O)N1CCC[C@H]1C(=O)N[C@@H](CO)C(=O)N[C@@H](CO)C(=O)NCC(=O)N[C@@H](CCC(=O)O)C(=O)N1CCC[C@H]1C(=O)N1CCC[C@H]1C(=O)N1CCC[C@H]1C(=O)N[C@@H](CO)C(=O)NCC(=O)N[C@@H](CO)C(=O)N[C@H](CCC(=O)O)C(N)=O [Example 720] | – | – | – | – | – | – | – | – | – | pEC50 (hGLP-1R [1]; [5]): 9.61; pEC50 (hGIPR [2]; [6]): 8.99; pEC50 (hGcgR; [5]): 8.75; pEC50 (hGLP-1R [3]; [6]): 7.55; pEC50 (hGIPR [4]; [5]): 10.99; pEC50 (human GcgR; [6]): 6.62 |
| H-Y[Aib]QGT[αMePhe(2-F)]TSD[4Pal][αMeS]I[αMeL]LD[Orn]K([γGlu-γGlu-C18 diacid])AQ[Aib]NFI[dE][αMeY]LQEGGPSSGEPPPEGT-NH2 [Example 525] | 9.37 | 8.68 | 8.00 | 7.69 | 10.45 | 6.34 | – | – | – | – |
| H-Y[Aib]QGT[αMePhe(2-F)]TSD[4Pal][αMeS]I[αMeL]LD[Orn]K([AEEA-γGlu-C18 diacid])AQ[αMe4Pal]EFI[dE][αMeY]LVEGGPSSGAPPPSGE-NH2 [Example 749] | 9.53 | 8.83 | 8.66 | 7.47 | 11.14 | 7.55 | – | – | – | – |
| H-Y[Aib]QGT[αMePhe(2-F)]TSD[4Pal]SI[αMeL]LDKK([γGlu-γGlu-C18 diacid])AQ[Aib][Orn]FIEYLSEGGPSSGEPPPEGSEE-NH2 [Example 651] | – | – | – | – | – | – | – | – | – | pEC50 (hGLP-1R [1]; [5]): 8.99; pEC50 (hGIPR [2]; [6]): 8.20; pEC50 (hGcgR; [5]): 7.97; pEC50 (hGLP-1R [3]; [6]): 7.27; pEC50 (hGIPR [4]; [5]): 9.95; pEC50 (human GcgR; [6]): 6.19 |
| CC[C@H](C)[C@H](NC(=O)[C@H](Cc1ccccc1)NC(=O)[C@H](C)NC(=O)C(C)(C)NC(=O)[C@H](CCC(N)=O)NC(=O)[C@H](C)NC(=O)[C@H](CCCCNC(=O)COCCOCCNC(=O)CC[C@H](NC(=O)CCCCCCCCCCCCCCCCC(=O)O)C(=O)O)NC(=O)[C@H](CCCCN)NC(=O)[C@H](CC(=O)O)NC(=O)[C@H](CC(C)C)NC(=O)[C@H](CC(C)C)NC(=O)[C@@H](NC(=O)[C@H](CO)NC(=O)[C@H](Cc1ccc(O)cc1)NC(=O)[C@H](CC(=O)O)NC(=O)[C@H](CO)NC(=O)[C@@H](NC(=O)[C@](C)(Cc1ccccc1F)NC(=O)[C@@H](NC(=O)CNC(=O)[C@H](CCC(N)=O)NC(=O)C(C)(C)NC(=O)[C@@H](N)Cc1ccc(O)cc1)[C@@H](C)O)[C@@H](C)O)[C@@H](C)CC)C(=O)N[C@@H](CCC(=O)O)C(=O)N[C@@H](Cc1ccc(O)cc1)C(=O)N[C@@H](CC(C)C)C(=O)N[C@@H](CCC(=O)O)C(=O)N[C@@H](CCC(=O)O)C(=O)NCC(=O)NCC(=O)N1CCC[C@H]1C(=O)N[C@@H](CO)C(=O)N[C@@H](CO)C(=O)NCC(=O)N[C@@H](C)C(=O)N1CCC[C@H]1C(=O)N1CCC[C@H]1C(=O)N1CCC[C@H]1C(=O)N[C@@H](CO)C(=O)N[C@@H](CCC(=O)O)C(=O)NCC(N)=O [Example 398] | 9.73 | 7.91 | 8.67 | 7.37 | 10.50 | 6.43 | – | – | – | – |
| H-Y[Aib]QGTFTSD[4Pal]SQ[αMeL]LDKK([γGlu-γGlu-C18 diacid])AQ[αMe4Pal]AFIE[αMe4Pal]LIE[Aib]GPSSGAPPPSGTGE-NH2 [Example 1119] | – | 8.40 | – | 6.82 | – | 6.63 | 8.45 | 8.12 | 10.03 | – |
| H-Y[Aib]QGTFTSD[4Pal]SQ[αMeL]LDKK([γGlu-γGlu-C18 diacid])AQ[αMe4Pal]AFIEYLIAGGPSSGAPPPSGSEE-NH2 [Example 960] | – | 7.85 | – | 6.79 | – | 6.09 | 8.82 | 8.26 | 9.91 | – |
| H-Y[Aib]QGT[αMePhe(2-F)]TSD[4Pal][αMeS]I[αMeL]LD[Orn]K([AEEA-γGlu-C18 diacid])AA[Aib]EFI[dE][αMeY]LIEGGPSSGAPPPSGTEE-NH2 [Example 725] | 9.59 | 8.86 | 8.83 | 7.54 | 10.90 | 6.61 | – | – | – | – |
| H-Y[Aib]QGT[αMePhe(2-F)]TSD[4Pal][αMeS]I[αMeL]LD[Orn]K([γGlu-γGlu-C18 diacid])AQ[Aib][Orn]FI[dE][αMeY]LAEGGPSSGEPPPSGEEE-NH2 [Example 592] | 8.95 | 8.39 | 8.37 | 7.25 | 10.01 | 6.71 | – | – | – | – |
| H-Y[Aib]QGT[αMePhe(2-F)]TSD[4Pal]SI[αMeL]LD[Orn]K([γGlu-γGlu-C18 diacid])AQ[αMe4Pal][Orn]FI[dE][αMeY]LIEGGPSSGEPPPESE-NH2 [Example 685] | 9.51 | 9.30 | 8.66 | 7.73 | 11.09 | 6.80 | – | – | – | – |
| H-Y[Aib]QGT[αMePhe(2-F)]TSD[4Pal][αMeS]I[αMeL]LD[Orn]K([AEEA-γGlu-C18 diacid])AQ[αMe4Pal]EFI[dE][αMeY]LIEGGPPSGEPPPEGE-NH2 [Example 1191] | – | 9.03 | – | 7.08 | – | 6.61 | – | – | – | pEC50 (hGLP-1R [1]; [8]): 9.02; pEC50 (hGcgR; [8]): 8.51; pEC50 (hGIPR [4]; [8]): 11.00 |
| H-Y[Aib]QGTFTSDFS[Orn][αMeL]LDKK([AEEA-AEEA-γGlu-C18 diacid])AQ[Aib]AFIEYLLE[Aib]GESSGAPPPSGT-NH2 [Example 180] | – | 7.62 | – | 6.05 | – | 5.88 | 8.29 | 8.61 | 9.85 | – |
| H-Y[Aib]QGT[αMePhe(2-F)]TSD[4Pal][αMeS]I[αMeL]LD[Orn]K([AEEA-γGlu-C18 diacid])AQ[αMe4Pal]EFI[dE][αMeY]LIEGGPSSGAPPPTGE-NH2 [Example 1142] | – | 9.13 | – | 7.42 | – | 6.69 | 9.48 | 8.87 | 11.15 | – |
| CC[C@H](C)[C@H](NC(=O)[C@H](Cc1ccccc1)NC(=O)[C@H](C)NC(=O)C(C)(C)NC(=O)[C@H](CCC(N)=O)NC(=O)[C@H](C)NC(=O)[C@H](CCCCNC(=O)COCCOCCNC(=O)CC[C@H](NC(=O)CCCCCCCCCCCCCCCCC(=O)O)C(=O)O)NC(=O)[C@H](CCCCN)NC(=O)[C@H](CC(=O)O)NC(=O)[C@H](CC(C)C)NC(=O)[C@](C)(CC(C)C)NC(=O)[C@H](CCC(N)=O)NC(=O)[C@H](CO)NC(=O)[C@H](Cc1ccncc1)NC(=O)[C@H](CC(=O)O)NC(=O)[C@H](CO)NC(=O)[C@@H](NC(=O)[C@H](Cc1ccccc1)NC(=O)[C@@H](NC(=O)CNC(=O)[C@H](CCC(N)=O)NC(=O)C(C)(C)NC(=O)[C@@H](N)Cc1ccc(O)cc1)[C@@H](C)O)[C@@H](C)O)C(=O)N[C@@H](CCC(=O)O)C(=O)N[C@@H](Cc1ccc(O)cc1)C(=O)N[C@@H](CC(C)C)C(=O)N[C@@H](CC(C)C)C(=O)N[C@@H](CCC(=O)O)C(=O)N[C@H](C)C(=O)NCC(=O)N1CCC[C@H]1C(=O)N[C@@H](CO)C(=O)N[C@@H](CO)C(=O)NCC(=O)N[C@@H](C)C(=O)N1CCC[C@H]1C(=O)N1CCC[C@H]1C(=O)N1CCC[C@H]1C(=O)N[C@@H](CO)C(=O)NCC(=O)N[C@H](C(N)=O)[C@@H](C)O [Example 821] | – | 7.58 | – | 6.44 | – | 6.00 | 8.55 | 8.17 | 9.82 | – |
